Experiment [1] deals with Staphylococcus aureus. The experiment is described as follows: Antibacterial activity against Staphylococcus aureus MB2865 incubated for overnight. It is filed as functional.
Experiment [2] deals with Streptococcus pneumoniae. As to the kind of experiment: Antibacterial activity against Streptococcus pneumoniae MCL5350 incubated for overnight. It is filed as functional.
Experiment [3] can be described thus: Inhibition of recombinant Staphylococcus aureus DNA polymerase 3C expressed in Escherichia coli BL21 cells assessed as assessed as reduction in [3H]dTTP incorporation in to activated calf thymus DNA using calf thymus DNA as substrate incubated for 30 mins by scintillation counting analysis.
The subject of experiment [4] is Enterococcus faecium. The experiment is described as follows: Antibacterial activity against Enterococcus faecium RLA1 incubated for overnight. Type of experiment: functional.
The subject of experiment [5] is Bacillus subtilis. As to the kind of experiment: Antibacterial activity against Bacillus subtilis F2 incubated for overnight. Type of experiment: functional.
Experiment [6] has as its system Enterococcus faecium. As to the kind of experiment: Antibacterial activity against vancomycin-resistant Enterococcus faecium by CLSI guideline based method. Type of experiment: functional.
A further experiment has as its system Streptococcus pyogenes. The experiment is described as follows: Antibacterial activity against macrolide-resistant Streptococcus pyogenes by CLSI guideline based method. It is filed as functional.
In experiment [7] the test system is Staphylococcus aureus. The experiment is described as follows: Antibacterial activity against methicillin-resistant Staphylococcus aureus by CLSI guideline based method. Type of experiment: functional.
Experiment [8] can be described thus: Inhibition of bacterial DNA polymerase 3C using dATP/dCTP/dTTP/dGTP as substrate in presence of activated calf thymus DNA incubated for 15 mins and measured for 1 min by luciferase based enzymatic assay. The arrangement: species or system Bacteria.
In experiment [9] the test system is Staphylococcus aureus. As to the kind of experiment: Antibacterial activity against Staphylococcus aureus 133 incubated for 18 hrs by broth microdilution method. Type of experiment: functional. Conditions: Staphylococcus aureus, 133, 18 h. (Dilution methods test growth across graded concentrations, often in twofold steps.)
Experiment [10] concerns Enterococcus faecalis. As to the kind of experiment: Antibacterial activity against Enterococcus faecalis ICB 27159 incubated for 18 hrs under microaerophilic condition by broth microdilution method. It is filed as functional. Conditions: ICB 27159, 18 h.
Experiment [11] relates to Streptococcus pneumoniae. As to the kind of experiment: Antibacterial activity against Streptococcus pneumoniae 1707/4 incubated for 18 hrs under microaerophilic condition by broth microdilution method. Type of experiment: functional. Particulars: 1707/4, 18 h.
In experiment [12] the test system is Enterococcus faecalis. As to the kind of experiment: Antibacterial activity against Enterococcus faecalis ICB 27159 infected in CFW1 mouse assessed as mouse survival at 5 mg/kg, iv administered at 30 mins post infection and measured over 5 days. It is filed as functional, organism-based.
Experiment [13] concerns Staphylococcus aureus. As to the kind of experiment: Antibacterial activity against Staphylococcus aureus 133 infected in CFW1 mouse, iv administered at 30 mins post infection and measured over 5 days. Type of experiment: functional. Particulars: Staphylococcus aureus, 133, iv.
Experiment [14] deals with Bacillus subtilis. The experiment is described as follows: Antibacterial activity against Bacillus subtilis ATCC BD54 incubated for 16 to 18 hrs by microplate reader analysis. Type of experiment: functional.
Experiment [15] is described as follows: Inhibition of recombinant Bacillus subtilis DNA polymerase 3C expressed in Escherichia coli using activated calf thymus DNA as substrate after 10 mins in presence of dATP/dCTP/[3H]dTTP/dATP by liquid scintillation counting analysis.
Experiment [16] deals with Clostridioides difficile. The experiment is described as follows: Antibacterial activity against Clostridium difficile by CLSI method. It is filed as functional.
Experiment [17] deals with Enterococcus faecalis. As to the kind of experiment: Antibacterial activity against Enterococcus faecalis ATCC 29212 incubated for 16 to 24 hrs by microplate reader analysis. Type of experiment: functional.
Experiment [18] relates to Enterococcus faecium. The experiment is described as follows: Antibacterial activity against vancomycin-resistant Enterococcus faecium incubated for 16 to 24 hrs by microplate reader analysis. Type of experiment: functional.
The test system of the next experiment is Escherichia coli. As to the kind of experiment: Antibacterial activity against Escherichia coli J53 incubated for 16 to 24 hrs by microplate reader analysis. Type of experiment: functional.
The subject of experiment [19] is Bacillus subtilis. As to the kind of experiment: Antibacterial activity against Bacillus subtilis ATCC BD54 incubated for 16 to 24 hrs by microplate reader analysis. Type of experiment: functional.
Experiment [20] relates to Staphylococcus aureus. The experiment is described as follows: Antibacterial activity against methicillin-resistant Staphylococcus aureus B42876 incubated for 16 to 24 hrs by microplate reader analysis. Type of experiment: functional.
The test system of experiment [21] is Staphylococcus aureus. As to the kind of experiment: Antibacterial activity against Staphylococcus aureus ATCC 25923 incubated for 16 to 24 hrs by microplate reader analysis. It is filed as functional.
For experiment [22], the system named is Enterococcus faecium. As to the kind of experiment: Antibacterial activity against Enterococcus faecium incubated for 16 to 24 hrs by microplate reader analysis. Type of experiment: functional.
A short description of experiment [23]: Inhibition of Bacillus subtilis DNA polymerase 3.
Experiment [24] can be described thus: Inhibition of Staphylococcus aureus R27 DNA polymerase 3C using activated calf thymus DNA as substrate in presence of dATP/dGTP/dCTP/[3H]dTTP measured for 20 mins.
Experiment [25] concerns Clostridioides difficile. As to the kind of experiment: In vivo inhibition of Clostridium difficile ATCC 43255 infected in golden syrian hamster assessed as reduction in recurrence rate at 50 mg/kg, po bid for 7 days relative to control. It is filed as functional. Particulars: 168 h.
The test system of experiment [26] is Clostridioides difficile. The experiment is described as follows: Antibacterial activity against metronidazole-resistant Clostridium difficile by CLSI method. Type of experiment: functional.
For experiment [27], the system named is Clostridioides difficile. As to the kind of experiment: Antibacterial activity against vancomycin-resistant Clostridium difficile by CLSI method. Type of experiment: functional.

The structures appear in SMILES notation. ≈ marks a conversion by molar mass, not a printed value. Calls of active or inactive are those of the source. No cut-off for these calls is given here. Bounds are passed on as bounds.

The term MIC denotes the least concentration at which growth counts as inhibited. Low readings indicate greater potency, high ones weaker potency. In general, IC50 refers to the concentration that inhibits the measured activity by half. `CCc1cc(Nc2nc(O)c3c[nH]nc3n2)ccc1C`: the MIC against Staphylococcus aureus [1], in the experiment on Streptococcus pneumoniae [2], against Enterococcus faecium [4] and in the experiment with Bacillus subtilis [5] was no less than 9 µg/mL in each case. In addition, the IC50 in [3] amounted to 71000 nM.

As usually defined, the MIC90 is the lowest concentration that inhibits either 90% of growth or 90% of the strains tested, depending on the study. With `Cc1noc(C)c1C(=O)N(C)Cc1csc(NC(=O)NCc2cccc(F)c2)n1`, the MIC90 against Enterococcus faecium [6], against Streptococcus pyogenes and in the experiment with Staphylococcus aureus [7] was 1 to 4 µg/mL (≈ 2.4 to 9.58 µM) each time.

In general, ED50 refers to the dose that gives a 50% effect, or the effect in half of the subjects. `CCc1cc(Nc2cc(=O)n(CC3CCN(C(=O)c4ccno4)CC3)c(=O)[nH]2)ccc1C`: in experiment [8], the IC50 came out at 100 nM. In addition, the MIC against Staphylococcus aureus [9] came out at 16 µg/mL (≈ 36.6 µM); against Enterococcus faecalis [10], 8 µg/mL (≈ 18.3 µM); in the experiment with Streptococcus pneumoniae [11], 8 µg/mL (≈ 18.3 µM). Moreover, the outcome in the experiment on Enterococcus faecalis [12] was Active. In the experiment with Staphylococcus aureus [13], the 50% effect level (ED50) was put at a dose of 10 mg/kg.

Regarding `COc1ccc(-c2cc(C(=O)N/N=C/c3cc(OC)c(OC)c(OC)c3)[nH]n2)cc1`, in the experiment on Bacillus subtilis [14], 0.625 µg/mL (≈ 1.52 µM) was the least that counted as inhibitory (MIC). Besides, the IC50 in [15] is 200 nM.

What is called MIC50 is an inhibitory concentration at the 50% level, which refers to growth in some studies and to a panel of isolates in others. The low end stands for higher susceptibility, the high end for lower susceptibility. As for `CN[C@H](CC(C)C)C(=O)N[C@H]1C(=O)N[C@@H](CC(N)=O)C(=O)N[C@H]2C(=O)N[C@H]3C(=O)N[C@H](C(=O)N[C@H](C(=O)O)c4cc(O)cc(O)c4-c4cc3ccc4O)[C@H](O)c3ccc(c(Cl)c3)Oc3cc2cc(c3O[C@@H]2O[C@H](CO)[C@@H](O)[C@H](O)[C@H]2O[C@H]2C[C@](C)(N)[C@H](O)[C@H](C)O2)Oc2ccc(cc2Cl)[C@H]1O` [VANCOMYCIN], in the experiment on Clostridioides difficile [16], the MIC50 was determined as 1 µg/mL (≈ 0.69 µM) and the MIC90 amounted to 4 µg/mL (≈ 2.76 µM).

`CCc1cc(Nc2cc(=O)n(CCCCN3CCCCC3)c(=O)[nH]2)ccc1C`: the MIC is 20 µg/mL (≈ 52 µM) against Enterococcus faecalis [17]; 10 µg/mL (≈ 26 µM) in the experiment on Enterococcus faecium [18]; greater than 20 µg/mL with Escherichia coli; 10 µg/mL (≈ 26 µM) with Bacillus subtilis [19]; 40 µg/mL (≈ 104 µM) in the experiment with Staphylococcus aureus [20]; 20 µg/mL (≈ 52 µM) in the experiment on Staphylococcus aureus [21]. Besides, it took 20 µg/mL (≈ 52 µM) to inhibit growth against Enterococcus faecium [22] (MIC). Also, the IC50 in experiment [15] came out at 28 nM.

`CCc1cc(Nc2cc(O)nc(O)n2)ccc1C`: in experiment [23], 1000 nM corresponded to half-maximal inhibition (IC50).

For the compound `CCc1cc(Nc2cc(Oc3ccc(Br)cc3)nc(N)n2)ccc1C`, the IC50 in experiment [24] was 10000 nM.

For orientation: inhibition in vivo means how much of the control response was suppressed. Turning to `O=c1[nH]c(NCc2ccc(Cl)c(Cl)c2)nc2ncn(CCN3CCOCC3)c12` [IBEZAPOLSTAT], in the experiment on Clostridioides difficile [25], the inhibition in vivo at 50 mg/kg was 40%. The MIC50 against Clostridioides difficile [16], against Clostridioides difficile [26] and in the experiment with Clostridioides difficile [27] was 2 µg/mL (≈ 4.72 µM) throughout. Also, the MIC90 with Clostridioides difficile [16], in the experiment on Clostridioides difficile [26] and in the experiment with Clostridioides difficile [27] was 4 µg/mL (≈ 9.45 µM) throughout.

`Cc1ncc([N+](=O)[O-])n1CCO` [METRONIDAZOLE]: in the experiment with Clostridioides difficile [16], the MIC50 turned out to be 1 µg/mL (≈ 5.84 µM) and the MIC90 came out at 4 µg/mL (≈ 23.4 µM).

For `CCc1cc(Nc2cc(=O)n(CCCCO)c(=O)[nH]2)ccc1C`, the MIC with Enterococcus faecalis [17] was 5 µg/mL (≈ 15.8 µM); in the experiment with Enterococcus faecium [18] it was 2.5 µg/mL (≈ 7.88 µM); in the experiment on Escherichia coli it was greater than 20 µg/mL; in the experiment with Bacillus subtilis [19], less than 1.25 µg/mL; in the experiment on Staphylococcus aureus [20], 5 µg/mL (≈ 15.8 µM); with Staphylococcus aureus [21], 5 µg/mL (≈ 15.8 µM). Moreover, 2.5 µg/mL (≈ 7.88 µM) was the least that counted as inhibitory in the experiment with Enterococcus faecium [22] (MIC). Moreover, the half-inhibitory concentration (IC50) in experiment [15] stood at 63 nM.

As for `COCCS(=O)(=O)Cc1csc(NC(=O)NCc2ccc(Cl)c(Cl)c2)n1`, the MIC against Enterococcus faecium [6], against Streptococcus pyogenes and with Staphylococcus aureus [7] was 0.5 to 4 µg/mL (≈ 1.14 to 9.12 µM) in each case.

Take `CS(=O)(=O)CCOCc1csc(NC(=O)NCc2ccc(Cl)c(Cl)c2)n1`: the MIC90 against Enterococcus faecium [6], against Streptococcus pyogenes and against Staphylococcus aureus [7] was 1 to 8 µg/mL (≈ 2.28 to 18.2 µM) throughout.

(Values after ChEMBL document CHEMBL4346728, “Discovery and development of DNA polymerase IIIC inhibitors to treat Gram-positive infections” (Bioorg Med Chem, 2019).)
